Data as given in patent US7910751B2, “Heterocyclidene acetamide derivative” (Mochida Pharmaceutical Co., Ltd., priority 2005, dated 2011).

Target: T1, human TRPV1 (Homo sapiens, UniProt Q8NER1)
T1 construct: expressed in transfected cells; host or cells: CHO-K1
Assay: Measurement of capsaicin-induced Ca influx in human TRPV1 transformed CHO cell line using FDSS-6000
Format: cell-based
Details: concentration at which the capsaicin concentration-reaction curve is shifted two times to the right, human TRPV1 transformed CHO cells

T1 sequence (Q8NER1 whole entry): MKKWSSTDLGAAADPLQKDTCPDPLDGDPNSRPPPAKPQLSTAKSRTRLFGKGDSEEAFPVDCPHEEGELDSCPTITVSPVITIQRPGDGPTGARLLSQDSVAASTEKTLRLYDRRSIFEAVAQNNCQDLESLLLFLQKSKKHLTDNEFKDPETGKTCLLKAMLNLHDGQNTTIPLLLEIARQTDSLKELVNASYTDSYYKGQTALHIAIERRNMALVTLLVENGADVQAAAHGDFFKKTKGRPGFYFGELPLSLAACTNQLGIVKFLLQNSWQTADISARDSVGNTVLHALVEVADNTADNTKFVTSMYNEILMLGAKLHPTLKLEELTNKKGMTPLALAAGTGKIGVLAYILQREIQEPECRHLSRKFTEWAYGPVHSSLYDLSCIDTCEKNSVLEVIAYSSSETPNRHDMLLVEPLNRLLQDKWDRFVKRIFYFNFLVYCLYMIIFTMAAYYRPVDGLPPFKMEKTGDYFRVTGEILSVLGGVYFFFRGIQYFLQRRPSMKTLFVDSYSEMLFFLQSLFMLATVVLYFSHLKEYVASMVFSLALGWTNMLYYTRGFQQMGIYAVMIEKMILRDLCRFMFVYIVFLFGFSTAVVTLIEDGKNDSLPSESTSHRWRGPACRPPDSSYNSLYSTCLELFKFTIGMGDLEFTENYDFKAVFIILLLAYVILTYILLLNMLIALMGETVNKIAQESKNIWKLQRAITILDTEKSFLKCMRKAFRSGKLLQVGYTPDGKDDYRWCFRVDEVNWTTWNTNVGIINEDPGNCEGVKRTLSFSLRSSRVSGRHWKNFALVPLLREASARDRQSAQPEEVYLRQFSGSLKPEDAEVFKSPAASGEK

Row | Compound | A2 VALUE
1 | O=C(/C=C1\CCCOc2cc(C(F)(F)F)ccc21)Nc1ccc2c(c1)N(C(=O)CO)CCO2 [Example 231] | B (compounds having an A2 value of 100 nM or more are represented by B)
2 | O=C(/C=C1\CCCOc2cc(C(F)(F)F)ccc21)Nc1ccc2c(c1)N(CCO)CCO2 [Example 233] | A (compounds of the present invention having an A2 value of less than 100 nM are represented by A)
3 | O=C(/C=C1\CCCOc2cc(C(F)(F)F)ccc21)Nc1ccc2c(c1)N(CCO)C(=O)CO2 [Example 234, (E)-2-(8-trifluoromethyl-3,4-dihydrobenzo[b]oxepin-5(2H)-ylidene)-N-(4-(2-hydroxyethyl)-2H-1,4-benzoxazin-3(4H)-on-6-yl)acetamide] | A (compounds of the present invention having an A2 value of less than 100 nM are represented by A)
4 | O=C(/C=C1\CCOc2nc(C(F)(F)F)ccc21)Nc1cccc2c1CC(O)CC2 (centres unmarked) [Example 238, (E)-2-(7-trifluoromethyl-3,4-dihydro-2H-pyrano[2,3-b]pyridin-4-ylidene)-N-(7-hydroxy-5,6,7,8-tetrahydronaphthalen-1-yl)acetamide] | A (compounds of the present invention having an A2 value of less than 100 nM are represented by A)
5 | O=C(/C=C1\CCCOc2nc(C(F)(F)F)ccc21)Nc1cccc2c1CC(O)CC2 (centres unmarked) [Example 239, (E)-2-(8-trifluoromethyl-2,3,4,5-tetrahydrooxepino[2,3-b]pyridin-5-ylidene)-N-(7-hydroxy-5,6,7,8-tetrahydronaphthalen-1-yl)acetamide] | A (compounds of the present invention having an A2 value of less than 100 nM are represented by A)
6 | CC1(C)N/C(=C\C(=O)Nc2cccc3c2CC(O)CC3)c2ccc(C(F)(F)F)cc2O1 (centres unmarked) [Example 240, (Z)-2-(6-trifluoromethyl-3,3-dimethyl-4-oxa-3,4-dihydro-(2H)-isoquinolin-1-ylidene)-N-(7-hydroxy-5,6,7,8-tetrahydronaphthalen-1-yl)acetamide] | A (compounds of the present invention having an A2 value of less than 100 nM are represented by A)
7 | CC1(C)C/C(=C\C(=O)Nc2cccc3c2CC(O)CC3)c2ccc(C(F)(F)F)cc2O1 (centres unmarked) [Example 241, (E)-2-(7-trifluoromethyl-2,2-dimethylchroman-4-ylidene)-N-(7-hydroxy-5,6,7,8-tetrahydronaphthalen-1-yl)acetamide] | A (compounds of the present invention having an A2 value of less than 100 nM are represented by A)
8 | CC1(C)C/C(=C\C(=O)Nc2cccc3c2CC(O)CC3)c2ccc(C(F)(F)F)cc2O1 (centres unmarked) [Example 242, (E)-2-(7-trifluoromethyl-2,2-dimethylchroman-4-ylidene)-N-(7-hydroxy-5,6,7,8-tetrahydronaphthalen-1-yl)acetamide] | A (compounds of the present invention having an A2 value of less than 100 nM are represented by A)
9 | CC1(C)C/C(=C\C(=O)Nc2cccc3c2CC(O)CC3)c2ccc(C(F)(F)F)cc2O1 (centres unmarked) [Example 243, (E)-2-(7-trifluoromethyl-2,2-dimethylchroman-4-ylidene)-N-(7-hydroxy-5,6,7,8-tetrahydronaphthalen-1-yl)acetamide] | A (compounds of the present invention having an A2 value of less than 100 nM are represented by A)
10 | CC1(C)C/C(=C\C(=O)Nc2cccc3c2CC(O)CN3)c2ccc(C(F)(F)F)cc2O1 (centres unmarked) [Example 244, (E)-2-(7-trifluoromethyl-2,2-dimethylchroman-4-ylidene)-N-(3-hydroxy-1,2,3,4-tetrahydroquinolin-5-yl)acetamide] | A (compounds of the present invention having an A2 value of less than 100 nM are represented by A)
11 | CC1(C)C/C(=C\C(=O)Nc2cccc3c2CC(O)CN3)c2ccc(C(F)(F)F)cc2O1 (centres unmarked) [Example 245, (E)-2-(7-trifluoromethyl-2,2-dimethylchroman-4-ylidene)-N-(3-hydroxy-1,2,3,4-tetrahydroquinolin-5-yl)acetamide] | A (compounds of the present invention having an A2 value of less than 100 nM are represented by A)
